Test results published in PMC5218480 (PLoS ONE, 2017).

System: MV-4-11 cells
Test: Gene expression microarray analysis (Affymetrix PrimeView) and GSEA
Assay type: cell-based, human
Parameters: RFU PODN (11730768_x_at) / Fold change /veh PODN (11730768_x_at) / RFU LINC00158 (11744669_a_at) / Fold change /veh LINC00158 (11744669_a_at) / RFU DUSP10 (11751237_a_at) / Fold change /veh DUSP10 (11751237_a_at) / RFU ID3 (11757404_x_at) / Fold change /veh ID3 (11757404_x_at) / RFU PLEKHG5 (11737974_s_at) / Fold change /veh PLEKHG5 (11737974_s_at) / RFU LRRC4B (11730491_at) / Fold change /veh LRRC4B (11730491_at) / RFU GIMAP4 (11747438_a_at) / Fold change /veh GIMAP4 (11747438_a_at) / RFU KRT8 (11758183_x_at) / Fold change /veh KRT8 (11758183_x_at) / RFU CNN1 (11734310_a_at) / Fold change /veh CNN1 (11734310_a_at) / RFU VPS37D (11726825_at) / Fold change /veh VPS37D (11726825_at) / RFU C10orf10 (11716522_x_at) / Fold change /veh C10orf10 (11716522_x_at) / RFU KIR2DL2 /// KIR2DL4 /// KIR2DL5A /// KIR2DL5B /// KIR2DS1 /// KIR2DS2 /// KIR2DS3 /// KIR2DS4 /// KIR3DL3 /// KIR3DL3 /// KIR3DS1 (11738374_at) / Fold change /veh KIR2DL2 /// KIR2DL4 /// KIR2DL5A /// KIR2DL5B /// KIR2DS1 /// KIR2DS2 /// KIR2DS3 /// KIR2DS4 /// KIR3DL3 /// KIR3DL3 /// KIR3DS1 (11738374_at) / RFU C1QL1 (11718748_at) / Fold change /veh C1QL1 (11718748_at) / RFU TMPRSS4 (11747572_a_at) / Fold change /veh TMPRSS4 (11747572_a_at) / RFU HAMP (11756126_x_at) / Fold change /veh HAMP (11756126_x_at) / RFU RNFT2 (11725882_a_at) / Fold change /veh RNFT2 (11725882_a_at) / RFU NR4A2 (11747474_a_at) / Fold change /veh NR4A2 (11747474_a_at) / RFU ABCC12 (11746883_a_at) / Fold change /veh ABCC12 (11746883_a_at) / RFU TMEM136 (11760407_x_at) / Fold change /veh TMEM136 (11760407_x_at) / RFU CLDN22 /// WWC2 (11732394_at) / Fold change /veh CLDN22 /// WWC2 (11732394_at) / RFU HLA-DPB1 (11760878_x_at) / Fold change /veh HLA-DPB1 (11760878_x_at) / RFU SPINT1 (11716480_a_at) / Fold change /veh SPINT1 (11716480_a_at) / RFU GAP43 (11754022_s_at) / Fold change /veh GAP43 (11754022_s_at) / RFU A4GNT (11735810_at) / Fold change /veh A4GNT (11735810_at) / RFU PRB3 (11715151_x_at) / Fold change /veh PRB3 (11715151_x_at) / RFU TUBB4B (11761932_at) / Fold change /veh TUBB4B (11761932_at) / RFU CAPN14 (11732068_a_at) / Fold change /veh CAPN14 (11732068_a_at) / RFU TMCC2 (11721928_a_at) / Fold change /veh TMCC2 (11721928_a_at) / RFU IRGQ (11745062_a_at) / Fold change /veh IRGQ (11745062_a_at) / RFU FAM174B (11720279_a_at) / Fold change /veh FAM174B (11720279_a_at) / RFU TMPRSS4 (11748680_a_at) / Fold change /veh TMPRSS4 (11748680_a_at) / RFU FAM212B (11763350_a_at) / Fold change /veh FAM212B (11763350_a_at) / RFU PLEKHG5 (11743358_a_at) / Fold change /veh PLEKHG5 (11743358_a_at) / RFU ZSCAN30 (11745921_a_at) / Fold change /veh ZSCAN30 (11745921_a_at) / RFU CMKLR1 (11741424_a_at) / Fold change /veh CMKLR1 (11741424_a_at) / RFU LOC101060620 /// MAPK8IP1 (11723275_at) / Fold change /veh LOC101060620 /// MAPK8IP1 (11723275_at) / RFU SPTSSB (11747773_x_at) / Fold change /veh SPTSSB (11747773_x_at) / RFU PRSS12 (11739890_at) / Fold change /veh PRSS12 (11739890_at) / RFU BIN1 (11741810_x_at) / Fold change /veh BIN1 (11741810_x_at) / RFU WNT11 (11732464_a_at) / Fold change /veh WNT11 (11732464_a_at) / RFU C10orf10 (11716521_a_at) / Fold change /veh C10orf10 (11716521_a_at) / RFU C5orf56 (11738089_at) / Fold change /veh C5orf56 (11738089_at) / RFU CYB561 (11721691_x_at) / Fold change /veh CYB561 (11721691_x_at) / RFU ANKRD19P (11752326_a_at) / Fold change /veh ANKRD19P (11752326_a_at) / RFU OR2T12 /// OR2T33 /// OR2T8 (11738714_s_at) / Fold change /veh OR2T12 /// OR2T33 /// OR2T8 (11738714_s_at) / RFU VCAN (11748164_a_at) / Fold change /veh VCAN (11748164_a_at) / RFU JSRP1 (11732532_at) / Fold change /veh JSRP1 (11732532_at) / RFU KRTAP10-11 (11738290_x_at) / Fold change /veh KRTAP10-11 (11738290_x_at) / RFU MYO3A (11730013_a_at) / Fold change /veh MYO3A (11730013_a_at) / RFU EBF3 (11725865_a_at) / Fold change /veh EBF3 (11725865_a_at) / RFU CAMK2N1 (11719241_x_at) / Fold change /veh CAMK2N1 (11719241_x_at) / RFU C5orf56 (11738088_a_at) / Fold change /veh C5orf56 (11738088_a_at) / RFU OLFML3 (11715873_a_at) / Fold change /veh OLFML3 (11715873_a_at) / RFU LOC100653217 /// NTM (11731650_a_at) / Fold change /veh LOC100653217 /// NTM (11731650_a_at) / RFU MAPK11 (11762145_a_at) / Fold change /veh MAPK11 (11762145_a_at) / RFU FIZ1 (11724087_x_at) / Fold change /veh FIZ1 (11724087_x_at) / RFU OASL (11726364_x_at) / Fold change /veh OASL (11726364_x_at) / RFU SOX15 (11748057_x_at) / Fold change /veh SOX15 (11748057_x_at) / RFU CD79A (11719716_a_at) / Fold change /veh CD79A (11719716_a_at) / RFU HIST1H1D (11736915_at) / Fold change /veh HIST1H1D (11736915_at) / RFU CASKIN2 (11723855_a_at) / Fold change /veh CASKIN2 (11723855_a_at) / RFU LOC730098 (11760151_x_at) / Fold change /veh LOC730098 (11760151_x_at) / RFU OR4N2 (11742367_at) / Fold change /veh OR4N2 (11742367_at) / RFU PRRT2 (11749266_a_at) / Fold change /veh PRRT2 (11749266_a_at) / RFU SNX32 (11753110_a_at) / Fold change /veh SNX32 (11753110_a_at) / RFU CDHR5 (11726645_a_at) / Fold change /veh CDHR5 (11726645_a_at) / RFU RCAN1 (11760418_a_at) / Fold change /veh RCAN1 (11760418_a_at) / RFU FAM167A (11723789_a_at) / Fold change /veh FAM167A (11723789_a_at) / RFU FAM26E (11764081_at) / Fold change /veh FAM26E (11764081_at) / RFU ISYNA1 (11749810_s_at) / Fold change /veh ISYNA1 (11749810_s_at) / RFU ACY1 (11761880_at) / Fold change /veh ACY1 (11761880_at) / RFU 11764098_at / Fold change /veh 11764098_at / RFU SAMD14 (11745864_x_at) / Fold change /veh SAMD14 (11745864_x_at) / RFU NPB (11741838_a_at) / Fold change /veh NPB (11741838_a_at) / RFU TMPRSS6 (11731388_a_at) / Fold change /veh TMPRSS6 (11731388_a_at) / RFU KRTAP10-2 (11738614_at) / Fold change /veh KRTAP10-2 (11738614_at) / RFU ARHGAP8 /// PRR5-ARHGAP8 (11727945_x_at) / Fold change /veh ARHGAP8 /// PRR5-ARHGAP8 (11727945_x_at) / RFU KRTAP5-7 /// NADSYN1 (11734609_at) / Fold change /veh KRTAP5-7 /// NADSYN1 (11734609_at) / RFU RASL12 (11751679_a_at) / Fold change /veh RASL12 (11751679_a_at) / RFU CDKN2B (11736163_a_at) / Fold change /veh CDKN2B (11736163_a_at) / RFU PRF1 (11729649_at) / Fold change /veh PRF1 (11729649_at) / RFU, ZNF638 /// ZNF638-IT1 / Fold change vs veh, ZNF638 /// ZNF638-IT1 / RFU, PANK3 / Fold change vs veh, PANK3 / RFU, SH3YL1 / Fold change vs veh, SH3YL1 / RFU, ZEB2 / Fold change vs veh, ZEB2 / RFU, NRIP1 / Fold change vs veh, NRIP1 / RFU, PTTG1IP / Fold change vs veh, PTTG1IP / RFU, CAPN2 / Fold change vs veh, CAPN2 / RFU, MED14 / Fold change vs veh, MED14 / RFU, SNORA58 / Fold change vs veh, SNORA58 / RFU, C1orf63 / Fold change vs veh, C1orf63 / RFU, LRRFIP1 / Fold change vs veh, LRRFIP1 / RFU, NDUFAF7 / Fold change vs veh, NDUFAF7 / RFU, SLC12A2 / Fold change vs veh, SLC12A2 / RFU, IBTK / Fold change vs veh, IBTK / RFU, ESF1 / Fold change vs veh, ESF1 / Fold change vs veh, TMEM50B / RFU, TAOK1 / Fold change vs veh, TAOK1 / RFU, ACBD3 / Fold change vs veh, ACBD3 / RFU, TMA16 / Fold change vs veh, TMA16 / RFU, RWDD3 / Fold change vs veh, RWDD3 / RFU, BCAT1 / Fold change vs veh, BCAT1 / RFU, EDEM3 / Fold change vs veh, EDEM3 / RFU, TMEM33 / Fold change vs veh, TMEM33 / RFU, WDR75 / Fold change vs veh, WDR75 / RFU, AHCTF1 / Fold change vs veh, AHCTF1 / RFU, TFRC / Fold change vs veh, TFRC / RFU, ZDHHC17 / Fold change vs veh, ZDHHC17 / RFU, NOM1 / Fold change vs veh, NOM1 / RFU, ARL8B / Fold change vs veh, ARL8B / RFU, ZBTB11 / Fold change vs veh, ZBTB11 / RFU, TAMM41 / Fold change vs veh, TAMM41 / RFU, KIAA1704 /// LOC100996395 / Fold change vs veh, KIAA1704 /// LOC100996395 / RFU, ING1 / Fold change vs veh, ING1 / RFU, TRMT61B / Fold change vs veh, TRMT61B / RFU, FUBP3 / Fold change vs veh, FUBP3 / RFU, TP53 / Fold change vs veh, TP53 / RFU, TNKS2 / Fold change vs veh, TNKS2 / RFU, ZFP14 / Fold change vs veh, ZFP14 / RFU, ACTR2 / Fold change vs veh, ACTR2 / RFU, PPP3R1 / Fold change vs veh, PPP3R1 / RFU, PIK3R1 / Fold change vs veh, PIK3R1 / RFU, HNRNPA1 / Fold change vs veh, HNRNPA1 / RFU, RNF170 / Fold change vs veh, RNF170 / RFU, ZNF28 / Fold change vs veh, ZNF28 / RFU, RNGTT / Fold change vs veh, RNGTT / RFU, OGT / Fold change vs veh, OGT / RFU, BRD1 / Fold change vs veh, BRD1 / RFU, MARS / Fold change vs veh, MARS / RFU, ZNF655 / Fold change vs veh, ZNF655 / RFU, FAHD1 / Fold change vs veh, FAHD1 / RFU, BDP1 / Fold change vs veh, BDP1 / RFU, LRRCC1 / Fold change vs veh, LRRCC1 / RFU, ARID1A / Fold change vs veh, ARID1A / RFU, ZNF146 / Fold change vs veh, ZNF146 / RFU, ZNF330 / Fold change vs veh, ZNF330 / RFU, GPN3 / Fold change vs veh, GPN3 / RFU, C9orf123 / Fold change vs veh, C9orf123 / RFU, N4BP2L2 / Fold change vs veh, N4BP2L2 / RFU, ARFIP1 / Fold change vs veh, ARFIP1 / RFU, FAM179B / Fold change vs veh, FAM179B / RFU, BCL10 / Fold change vs veh, BCL10 / RFU, UHRF1BP1L / Fold change vs veh, UHRF1BP1L / RFU, BET1 / Fold change vs veh, BET1 / RFU, CNOT2 / Fold change vs veh, CNOT2 / RFU, ZNF268 / Fold change vs veh, ZNF268 / Fold change vs veh, ZNF507 / RFU, DGCR2 / Fold change vs veh, DGCR2 / RFU, WDSUB1 / Fold change vs veh, WDSUB1 / Fold change vs veh, HSP90B1 /// MIR3652 / RFU, ADSS / Fold change vs veh, ADSS / RFU, GK / Fold change vs veh, GK / RFU, ZNF148 / Fold change vs veh, ZNF148 / RFU, TAF9 / Fold change vs veh, TAF9 / RFU, SLC1A5 / Fold change vs veh, SLC1A5 / RFU, SLMO2 / Fold change vs veh, SLMO2 / RFU, ABCC4 / Fold change vs veh, ABCC4 / RFU, LOC101060439 /// RAP1B / Fold change vs veh, LOC101060439 /// RAP1B / RFU, RFX7 / Fold change vs veh, RFX7 / RFU, GTPBP10 / Fold change vs veh, GTPBP10 / RFU, CNEP1R1 / Fold change vs veh, CNEP1R1 / RFU, BIVM-ERCC5 /// ERCC5 / Fold change vs veh, BIVM-ERCC5 /// ERCC5 / RFU, ILF3 / Fold change vs veh, ILF3 / RFU 11762660_at / Fold change /veh 11762660_at / RFU VCAN (11757783_s_at) / Fold change /veh VCAN (11757783_s_at) / RFU DDX43 (11728927_at) / Fold change /veh DDX43 (11728927_at) / RFU KRT8 (11758188_x_at) / Fold change /veh KRT8 (11758188_x_at) / RFU NKD1 (11759106_at) / Fold change /veh NKD1 (11759106_at) / RFU SRD5A1 (11742802_a_at) / Fold change /veh SRD5A1 (11742802_a_at) / RFU TPSAB1 /// TPSB2 (11721975_s_at) / Fold change /veh TPSAB1 /// TPSB2 (11721975_s_at) / RFU GSTM3 (11746129_a_at) / Fold change /veh GSTM3 (11746129_a_at) / RFU IL23R (11737362_x_at) / Fold change /veh IL23R (11737362_x_at) / RFU TMEM51 (11727254_a_at) / Fold change /veh TMEM51 (11727254_a_at) / RFU PIWIL2 (11732686_x_at) / Fold change /veh PIWIL2 (11732686_x_at) / RFU ORM1 (11744905_x_at) / Fold change /veh ORM1 (11744905_x_at) / RFU CCDC152 (11743942_at) / Fold change /veh CCDC152 (11743942_at) / RFU ECM1 (11717891_a_at) / Fold change /veh ECM1 (11717891_a_at) / RFU IL23R (11748794_a_at) / Fold change /veh IL23R (11748794_a_at) / RFU TNFAIP8L3 (11732012_x_at) / Fold change /veh TNFAIP8L3 (11732012_x_at) / RFU MBOAT4 (11741988_at) / Fold change /veh MBOAT4 (11741988_at) / RFU 11764193_at / Fold change /veh 11764193_at / RFU TMEM53 (11763286_at) / Fold change /veh TMEM53 (11763286_at) / RFU MAGEB2 (11727129_at) / Fold change /veh MAGEB2 (11727129_at) / RFU TMEM200A (11744735_a_at) / Fold change /veh TMEM200A (11744735_a_at) / RFU CCDC152 (11751479_a_at) / Fold change /veh CCDC152 (11751479_a_at) / RFU FAM211A (11726209_a_at) / Fold change /veh FAM211A (11726209_a_at) / RFU RGS16 (11746705_a_at) / Fold change /veh RGS16 (11746705_a_at) / RFU VCAN (11755009_s_at) / Fold change /veh VCAN (11755009_s_at) / RFU RHOB (11743442_s_at) / Fold change /veh RHOB (11743442_s_at) / RFU RGS16 (11720943_a_at) / Fold change /veh RGS16 (11720943_a_at) / RFU RGS16 (11720944_at) / Fold change /veh RGS16 (11720944_at) / RFU, VPS4B / Fold change vs veh, VPS4B / RFU, CREB1 / Fold change vs veh, CREB1 / RFU, DNAJC13 / Fold change vs veh, DNAJC13 / RFU, GNAQ / Fold change vs veh, GNAQ / RFU, CDK5R1 / Fold change vs veh, CDK5R1 / RFU, ZRANB3 / Fold change vs veh, ZRANB3 / RFU, CUL4A / Fold change vs veh, CUL4A / RFU, CCNY / Fold change vs veh, CCNY / RFU, UFL1 / Fold change vs veh, UFL1 / RFU, COG3 / Fold change vs veh, COG3 / RFU, DIAPH2 / Fold change vs veh, DIAPH2 / RFU, SKA2 / Fold change vs veh, SKA2 / RFU, AFF3 / Fold change vs veh, AFF3 / RFU, LMF1 / Fold change vs veh, LMF1 / RFU, IPO11 / Fold change vs veh, IPO11 / RFU, DFFB / Fold change vs veh, DFFB / RFU, FOXP1 / Fold change vs veh, FOXP1 / RFU, CARD8 / Fold change vs veh, CARD8 / RFU, STRN3 / Fold change vs veh, STRN3 / RFU, ADK / Fold change vs veh, ADK / RFU, RASSF2 / Fold change vs veh, RASSF2 / RFU, WIPF1 / Fold change vs veh, WIPF1 / RFU, LARP1B / Fold change vs veh, LARP1B / RFU, RASA1 / Fold change vs veh, RASA1 / RFU, RB1 / Fold change vs veh, RB1 / RFU, PPFIA1 / Fold change vs veh, PPFIA1 / RFU, MAT2A / Fold change vs veh, MAT2A / RFU, CCT5 / Fold change vs veh, CCT5 / RFU, WDR92 / Fold change vs veh, WDR92 / RFU, CUX1 / Fold change vs veh, CUX1 / RFU, TTC7A / Fold change vs veh, TTC7A / RFU, TMEM135 / Fold change vs veh, TMEM135 / RFU, DEPTOR / Fold change vs veh, DEPTOR / RFU, CPM / Fold change vs veh, CPM / RFU, DNAJB6 / Fold change vs veh, DNAJB6 / RFU, CACNA2D3 / Fold change vs veh, CACNA2D3 / RFU, DTX4 / Fold change vs veh, DTX4 / RFU, TFCP2 / Fold change vs veh, TFCP2 / RFU, GMCL1 /// GMCL1P1 / Fold change vs veh, GMCL1 /// GMCL1P1 / RFU, AEBP2 / Fold change vs veh, AEBP2 / RFU, SNHG1 /// SNORD22 /// SNORD25 /// SNORD26 /// SNORD27 /// SNORD28 /// SNORD29 /// SNORD31 / Fold change vs veh, SNHG1 /// SNORD22 /// SNORD25 /// SNORD26 /// SNORD27 /// SNORD28 /// SNORD29 /// SNORD31 / Fold change (Aza/veh), C12orf56 (ProbeSet 11735607_a_at) / Fold change (ACY-1035/veh), C12orf56 (ProbeSet 11735607_a_at) / Fold change (Aza/veh), FGFR1OP (ProbeSet 11751329_s_at) / Fold change (ACY-1035/veh), FGFR1OP (ProbeSet 11751329_s_at) / Fold change (Aza/veh), VPS36 (ProbeSet 11739960_a_at) / Fold change (ACY-1035/veh), VPS36 (ProbeSet 11739960_a_at) / RFU SYPL1 (11715823_x_at) / Fold change /veh SYPL1 (11715823_x_at) / RFU IGFBP7 (11715501_s_at) / Fold change /veh IGFBP7 (11715501_s_at) / RFU REEP3 (11722064_at) / Fold change /veh REEP3 (11722064_at) / RFU IGLL1 (11728026_x_at) / Fold change /veh IGLL1 (11728026_x_at): dose or concentration left out as unconfirmed
Details: ProbeSet 11721559_s_at; LIST B

`Nc1ncn([C@@H]2O[C@H](CO)[C@@H](O)[C@H]2O)c(=O)n1` [azacitidine] was tested, and the “Fold change vs veh, ZNF638 /// ZNF638-IT1” value was 0.91.
